From paper PMC6466579, “Non-Mammalian Prdx6 Enzymes (Proteins with 1-Cys Prdx Mechanism) Display PLA2 Activity Similar to the Human Orthologue” (Antioxidants, 2019) come the findings set out here.

Broadly, the inhibition is the relative decrease from the control value, in per cent. Lower therefore signals a weak effect.

Test [1] addresses T1, AfPrxC (Aspergillus fumigatus, UniProt B0Y9D7).
T1 construct: gene AFUB_080670
T1 sequence (B0Y9D7 47-267): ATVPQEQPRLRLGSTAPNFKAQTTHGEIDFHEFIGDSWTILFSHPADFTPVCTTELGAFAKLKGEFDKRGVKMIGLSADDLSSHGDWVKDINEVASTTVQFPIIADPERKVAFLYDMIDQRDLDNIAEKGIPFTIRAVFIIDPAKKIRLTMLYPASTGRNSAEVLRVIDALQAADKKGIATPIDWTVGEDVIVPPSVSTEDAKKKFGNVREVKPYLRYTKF
Put plainly: PLA2 assay, [3H]DPPC liposomes, TLC and scintillation. The format is biochemical.

Test [2] has as its target T2, AfPrx1 (Aspergillus fumigatus, UniProt Q4WPA3).
T2 construct: gene AFUA_4G08580; cytosolic 1-Cys Prdx
T2 sequence (Q4WPA3 1-213): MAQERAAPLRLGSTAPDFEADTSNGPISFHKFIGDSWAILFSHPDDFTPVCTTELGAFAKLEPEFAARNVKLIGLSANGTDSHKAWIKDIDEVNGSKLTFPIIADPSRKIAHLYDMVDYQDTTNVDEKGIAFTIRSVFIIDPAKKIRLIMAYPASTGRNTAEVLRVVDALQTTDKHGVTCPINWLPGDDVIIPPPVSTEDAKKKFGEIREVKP
Described as above. Type of test: biochemical.

For `CCCCCCCCCCCCCCCCOC[C@H](COCC(F)(F)F)OP(=O)(O)OC` [MJ33, 1-hexadecyl-3-trifluoro-ethylglycero-sn-2-phosphomethanol], the inhibition at 200 µM in test [1] and in test [2] was around 85% in each case.
